The results in this text go back to article PMC9119049 (Journal of medicinal chemistry, 2021).

Structures are written as SMILES.

Assay [1] has as its system HEK293T cells. Nature of the assay: p21 immunoblotting in HEK293T cells. The following applies: 6 h drug exposure. Background: A western blot detects proteins with antibodies after separation by electrophoresis.
Another assay deals with PLK1. Put plainly: Phospho-TCTP. The following applies: MM1.S cells; 30 – 100 nM drug concentration; 6 h drug exposure; immunoblotting.
Assay [2] deals with HEK293T cells. Nature of the assay: Cell growth inhibition, CellTiter Blue. It counts as cell-based. The conditions noted are these: 72 h drug exposure, single experiment in hexaplicate (± SEM). For orientation: The colour change of resazurin is a common sign of viable cells or microbes.
In a further assay the test system is MM1.S cells. Nature of the assay: Cell growth inhibition, CellTiter Blue. The conditions noted are these: 72 h drug exposure, single experiment in hexaplicate (± SEM). In kind it is cell-based.

For `CC[C@@H]1C(=O)N(C)c2cnc(Nc3ccc(C(=O)NC4CCN(C)CC4)cc3OC)nc2N1C1CCCC1` [BI2536], the p21Cip1 levels result in the assay on HEK293T cells [1] is reported as “increased significantly”.

`CCOc1cc(C(=O)N2CCC(N3CCN(C)CC3)CC2)ccc1Nc1ncc2c(n1)N(C1CCCC1)c1ccccc1C(=O)N2C` [ERK5-IN-1]: the p21Cip1 levels entry with HEK293T cells [1] was “lacked the potential to increase”.

For the compound `C[C@@H](Oc1cc(-n2cnc3ccc(CN4CCN(C)CC4)cc32)sc1C(N)=O)c1ccccc1C(F)(F)F` [GSK461364], the “levels of phosphorylated TCTP (S46)” value in the assay on PLK1 is reported as “significantly reduced”. For the same compound, the “Cell growth inhibitory potential IC50” value in the assay with HEK293T cells [2] and in the assay on MM1.S cells was “low nanomolar” throughout.

Consider `COc1cc(C(=O)N2CCC(N3CCN(C)CC3)CC2)ccc1Nc1ncc2c(n1)N(C)c1ccccc1C(=O)N2C` [LRRK2-IN-1], for which the p21Cip1 levels result in the assay with HEK293T cells [1] was “increased significantly”.

`CC[C@@H]1C(=O)N(C)c2cnc(Nc3ccc(C(=O)N[C@H]4CC[C@H](N5CCN(CC6CC6)CC5)CC4)cc3OC)nc2N1C(C)C` [Volasertib]: the “levels of phosphorylated TCTP (S46)” value with PLK1 is reported as “significantly reduced”. Moreover, the p21Cip1 levels entry in the assay on HEK293T cells [1] is “increased significantly”.

For the compound `CCOc1cc(N2CCC(O)CC2)ccc1Nc1ncc2c(n1)N(C)c1ccccc1C(=O)N2C` [XMD8-92], the p21Cip1 levels entry in the assay with HEK293T cells [1] is given as “lacked the potential to increase”.
